Patent US9551706B2, “Density-based methods for separation of materials, monitoring of solid supported reactions and measuring densities of small liquid volumes and solids” (President and Fellows of Harvard College, priority 2007, dated 2017)
Blank lines part the entries; values can stand above or below the molecule they belong to.

Assays:
[1] = known value; cited from earlier work
[2] = Capillary electrophoresis (Job's plot) binding affinity of the DT3 ligand for Gd^3+ in methanol; conditions: 25° C., 1:1 complex with Gd^3+, read-out: dissociation constant (Kd)
Method: FIG. 11 is a plot of peak area of the Gd(DT3) by capillary electrophoresis vs. mole fraction of Gd^3+ and illustrates the Job's plot assay for determination of the stoichiometry of and dissociation constant for Gd(DT3) in methanol.
The binding affinity of the DT3 ligand for Gd^3+ and the stoichiometry of the Gd(DT3) complex was determined using capillary electrophoresis (CE). […] See, FIG. 11. […] Gadolinium(III) chloride (the source of Gd^3+ for these experiments) is insoluble in non-polar organic solvents; the dissociation constants was not measured in these solvents.

[3] = Magnetic susceptibility from levitation of a glass bead in solutions of the paramagnetic salt; format: physicochemical; conditions: four solutions 100-175 mM in 9:1 chlorobenzene-toluene, 23° C.
Method: The average magnetic susceptibility for solid Gd(DT3) (in the centimeter-gram-second system of units, cgs (cm^3/mol)) was determined by measuring the magnetic susceptibilities for solutions of Gd(DT3) (χl^SI, International System of Units), and by inputting these values into Equation (3). χl^SI=4πχl^CGS[Gd^3+] (3)
Magnetic susceptibility values were measured for solutions of Gd(DT3) (100-175 mM) in 9:1 chlorobenzene-toluene (23° C.) by levitating a glass bead (ρp=1.0900 g/cm^3) in these solutions (FIG. 12A). This mixture of solvents is adequate because it has a density (ρl=1.082±0.003 g/cm^3) slightly below the density of the glass bead that was used. The vertical position of the glass bead (z) in each solution was determined using a ruler, and the densities of the solutions were measured by weighing 1 mL samples. […]
The remaining variable in Equation (1) that required measuring before the calculation of χl^SI could be completed was the strength of the magnetic field at the surface of the magnet (Bmax). […] This value was determined using solutions of GdCl3 (70-100 mM) with known magnetic susceptibilities and by levitating a glass bead (ρp=1.0200 g/cm^3) in these solutions. […]
The calibrated value for Bmax was used to calculate the χl^SI values for the solutions of Gd(DT3) (using Equation (1) and values for ρl and z that were measured experimentally). […]

[4] = Label-free detection of streptavidin binding to solid-supported biotin by magnetic levitation
Excerpt: Beads of biotin-labeled PEGA polymer swell in water (unlike polystyrene-based solid supports), have a loading capacity of 0.2 mmol amine/g PEGA, and pores of sufficient size for ˜70 kDa proteins to access the biotin on the interior of the polymer. The sensitivity of detection depends directly on the loading capacity (i.e., surface density of reacting groups) of the beads and the molecular weight of the bound molecules. In initial experiments, precipitation was observed after adding proteins to the aqueous Gd^3+ solution, so a Gd3+·DTPA chelate was used instead.
Binding of streptavidin to solid-supported biotin was detected by incubating ˜20 water saturated polymer beads with 20 μL of 0.19-mM protein dissolved in 40-mM potassium phosphate buffer (pH 7.0). After 15 min the solution, was diluted to 1.5 mL to suspend the beads using 210-mM Gd^3+·DTPA in 40-mM potassium phosphate buffer (pH 7.5), and then added ˜20 more biotin-labeled polymer beads. The solution was mixed gently for 5 s with a spatula, and then the cuvette was inserted along the axis of the magnets. After approximately 30 min, all of the beads had clustered into two separate bands (FIG. 19A), the upper one levitating at the same height as the unlabeled PEGA polymer. […]

Molecule: [Cl][Mn][Cl] [MnCl2]
- molar magnetic susceptibility of the solid salt [1]: 14350×10^−6 cm^3/mol

Molecule: diethylenetriamine triacetic acid tetradecane [DT3 ligand]
- Kd [2]: 300 nM

Molecule: gadolinium(III) diethylenetriamine triacetic acid tetradecane [Gd(DT3)]
- average molar magnetic susceptibility χl^CGS [3]: 0.036±0.003 cm^3/mol

- non-specific adsorption to unlabeled PEGA polymer (control) ([4]; unlabeled PEGA polymer beads): no obvious non-specific adsorption
Molecule: streptavidin: a 53-kDa protein
- binding to solid-supported biotin (levitation band) ([4]; biotin-labeled PEGA beads, 210-mM Gd^3+·DTPA, 40-mM potassium phosphate buffer): binding of streptavidin to the solid-supported biotin
